# Literature values as cited in US20130116279A1, “BICYCLIC HETEROARYL INHIBITORS OF PDE4” (KALYPSYS, INC., priority 2011, published 2013).
# Test system: recombinant human PDE4
# Settings: inhibiting recombinant human PDE4, reported
structure (smiles),measurement,value
COc1ccc(C2CNC(=O)C2)cc1OC1CCCC1 (stereo not shown) [rolipram],IC50,~200 nM
